# Data from patent US8952024B2, “Herbicidal pyrimidone derivatives” (E I du Pont de Nemours and Company, priority 2009, dated 2015).
# Key:
# Assay type in all cases: in vivo
# [1] = system: windgrass (Apera spica-venti); test: Test B postemergence plant response; details: Postemergence; for Windgrass plant response rating: 250 g ai/ha, scale 0 to 100
# Procedure, shortened: (§1)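 Visual ratings from 0 (no effect) to 100 (complete control), made against controls 13–15 days after treatment, kept in a greenhouse. Compounds were applied postemergence to potted plants at the 1- to 4-leaf stage (2–18 cm).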
# [2] = system: canarygrass (Phalaris minor); test: Test B postemergence plant response; details: Postemergence; for Canarygrass plant response rating: 250 g ai/ha, scale 0 to 100
# Procedure, shortened: as §1
# [3] = system: winter barley (Hordeum vulgare); test: Test B postemergence plant response; details: Postemergence; for Barley plant response rating: 250 g ai/ha, scale 0 to 100
# Procedure, shortened: as §1
# [4] = system: chickweed (Stellaria media); test: Test B postemergence plant response; details: Postemergence; for Chickweed plant response rating: 250 g ai/ha, scale 0 to 100
# Procedure, shortened: as §1
# [5] = system: goosegrass (Eleusine indica); test: Test B pre-/postemergence plant response; details: Preemergence, 62 g ai/ha; scale 0 to 100, 0 no effect, 100 complete control
# [6] = system: lambsquarters (Chenopodium album); test: Test B pre-/postemergence plant response
# Procedure, shortened: (§2)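 Pre-em in loam/sand; post-em at 1–4 leaf (2–18 cm) in peat mix. Solvent + surfactant formulation. Greenhouse 13–15 d; visual % control vs untreated, 0–100.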
# [7] = system: galium (catchweed bedstraw, Galium aparine); test: Test B pre-/postemergence plant response; details: Preemergence; for Galium plant response rating: 125 g ai/ha
# Procedure, shortened: as §2
# [8] = system: Italian ryegrass (Lolium multiflorum); test: Test B pre-/postemergence plant response
# Procedure, shortened: as §2
# [9] = system: bermudagrass (Cynodon dactylon); test: Test B pre-/postemergence plant response
# Procedure, shortened: as §2
# [10] = system: nightshade (eastern black nightshade, Solanum ptycanthum); test: Test B pre-/postemergence plant response; details: Preemergence; for Nightshade plant response rating: 125 g ai/ha
# Procedure, shortened: as §2
# [11] = system: ragweed (common ragweed, Ambrosia elatior); test: Test B pre-/postemergence plant response
# Procedure, shortened: as §2
# [12] = system: wheat (Triticum aestivum); test: Test B pre-/postemergence plant response
# Procedure, shortened: as §2
# [13] = system: sunflower (common oilseed sunflower, Helianthus annuus); test: Test B pre-/postemergence plant response; details: Preemergence; for Sunflower plant response rating: 125 g ai/ha
# Procedure, shortened: as §2
# [14] = system: pigweed (Amaranthus retroflexus); test: Test B pre-/postemergence plant response
# Procedure, shortened: as §2
# [15] = 31 g ai/ha, scale 0 to 100 (0 no effect, 100 complete control)
# [16] = 62 g ai/ha, scale 0 (no effect) to 100 (complete control), 13 to 15 days
# [17] = 125 g ai/ha, visual rating after 13 to 15 days, scale 0 (no effect) to 100 (complete control)
# [18] = 125 g ai/ha, scale 0 to 100 (0 no effect, 100 complete control), 13 to 15 days
# [19] = 250 g ai/ha, Preemergence, 0 to 100 scale
# [20] = Postemergence, 31 g ai/ha, scale 0 to 100 (0 no effect, 100 complete control)
# [21] = Postemergence, 62 g ai/ha, scale 0 (no effect) to 100 (complete control), 13 to 15 days
# [22] = Postemergence, 125 g ai/ha, visual rating after 13 to 15 days, scale 0 (no effect) to 100 (complete control)
# [23] = Postemergence, 250 g ai/ha, scale 0 to 100
# [24] = Preemergence, 31 g ai/ha, scale 0 to 100 (0 no effect, 100 complete control)
# [25] = Preemergence, 62 g ai/ha, scale 0 to 100, 0 no effect, 100 complete control
# [26] = Preemergence, 125 g ai/ha, 0 to 100 scale
# [27] = 62 g ai/ha, scale 0 to 100, 0 no effect, 100 complete control
# [28] = Postemergence, 125 g ai/ha, scale 0 to 100 (0 no effect, 100 complete control), 13 to 15 days
structure (smiles),measurement,setting,value
O=C1CCCC(O)=C1C(=O)c1cnc(-c2ccccc2)n(-c2ccc(F)cc2)c1=O [Compound 24],"Plant response rating, Windgrass",[1]; [15],20
same,"Plant response rating, Windgrass",[1]; [16],30
same,"Plant response rating, Windgrass",[1]; [17],60
same,Windgrass plant response rating,[1],80
same,"Plant response rating, Canarygrass",[2]; [15],40
same,"Plant response rating, Canarygrass",[2]; [16],40
same,Canarygrass plant response rating,[2],60
same,"Plant response rating, Barley",[3]; [15],0
same,"Plant response rating, Barley",[3]; [16],5
same,"Plant response rating, Barley",[3]; [18],50
same,Barley plant response rating,[3],70
same,"Plant response rating, Chickweed",[4]; [15],80
same,"Plant response rating, Chickweed",[4]; [16],90
same,"Plant response rating, Chickweed",[4]; [17],95
same,Chickweed plant response rating,[4],100
same,"Plant response rating, Goosegrass",[5],98
same,"Plant response rating, Lambsquarters",[6]; [19],100
same,"Plant response rating, Lambsquarters",[6]; [20],90
same,"Plant response rating, Lambsquarters",[6]; [21],90
same,"Plant response rating, Lambsquarters",[6]; [22],90
same,Lambsquarters plant response rating,[6]; [23],100
same,"Plant response rating, Lambsquarters",[6]; [24],98
same,"Plant response rating, Lambsquarters",[6]; [25],100
same,Lambsquarters plant response rating,[6]; [26],100
same,"Plant response rating, Galium","[7]; 250 g ai/ha, 0 to 100 scale",80
same,"Plant response rating, Galium",[7]; [15],0
same,"Plant response rating, Galium",[7]; [27],0
same,Galium plant response rating,[7]; 0 to 100 scale,10
same,"Plant response rating, Ryegrass, Italian",[8]; [19],10
same,"Plant response rating, Ryegrass, Italian",[8]; [20],0
same,"Plant response rating, Ryegrass, Italian",[8]; [21],5
same,"Plant response rating, Ryegrass, Italian",[8]; [22],40
same,"Ryegrass, Italian plant response rating",[8]; [23],50
same,"Plant response rating, Ryegrass, Italian",[8]; [24],0
same,"Plant response rating, Ryegrass, Italian",[8]; [25],0
same,"Ryegrass, Italian plant response rating",[8]; [26],10
same,"Plant response rating, Bermudagrass",[9]; [19],100
same,"Plant response rating, Bermudagrass",[9]; [20],85
same,"Plant response rating, Bermudagrass",[9]; [21],95
same,"Plant response rating, Bermudagrass",[9]; [28],100
same,Bermudagrass plant response rating,[9]; [23],100
same,"Plant response rating, Bermudagrass",[9]; [24],95
same,"Plant response rating, Bermudagrass",[9]; [25],100
same,Bermudagrass plant response rating,[9]; [26],100
same,"Plant response rating, Nightshade","[10]; 250 g ai/ha, 0 to 100 scale",100
same,"Plant response rating, Nightshade",[10]; [15],90
same,"Plant response rating, Nightshade",[10]; [27],98
same,Nightshade plant response rating,[10]; 0 to 100 scale,100
same,"Plant response rating, Ragweed",[11]; [19],100
same,"Plant response rating, Ragweed",[11]; [20],70
same,"Plant response rating, Ragweed",[11]; [21],80
same,"Plant response rating, Ragweed",[11]; [22],90
same,Ragweed plant response rating,[11]; [23],98
same,"Plant response rating, Ragweed",[11]; [24],85
same,"Plant response rating, Ragweed",[11]; [25],90
same,Ragweed plant response rating,[11]; [26],98
same,"Plant response rating, Wheat",[12]; [19],0
same,"Plant response rating, Wheat",[12]; [20],5
same,"Plant response rating, Wheat",[12]; [21],10
same,"Plant response rating, Wheat",[12]; [22],30
same,Wheat plant response rating,[12]; [23],50
same,"Plant response rating, Wheat",[12]; [24],0
same,"Plant response rating, Wheat",[12]; [25],0
same,Wheat plant response rating,[12]; [26],0
same,"Plant response rating, Sunflower","[13]; 250 g ai/ha, 0 to 100 scale",98
same,"Plant response rating, Sunflower",[13]; [15],85
same,"Plant response rating, Sunflower",[13]; [27],90
same,Sunflower plant response rating,[13]; 0 to 100 scale,95
same,"Plant response rating, Pigweed",[14]; [19],100
same,"Plant response rating, Pigweed",[14]; [20],70
same,"Plant response rating, Pigweed",[14]; [21],80
same,"Plant response rating, Pigweed",[14]; [22],80
same,Pigweed plant response rating,[14]; [23],80
same,"Plant response rating, Pigweed",[14]; [24],98
same,"Plant response rating, Pigweed",[14]; [25],100
same,Pigweed plant response rating,[14]; [26],100
Cc1cccc(-n2c(-c3ccccc3)ncc(C(=O)C3=C(O)CCCC3=O)c2=O)c1C [Compound 27],"Plant response rating, Windgrass",[1]; [15],10
same,"Plant response rating, Windgrass",[1]; [16],10
same,"Plant response rating, Windgrass",[1]; [17],50
same,Windgrass plant response rating,[1],60
same,"Plant response rating, Canarygrass",[2]; [15],10
same,"Plant response rating, Canarygrass",[2]; [16],10
same,"Plant response rating, Canarygrass",[2]; [17],30
same,Canarygrass plant response rating,[2],50
same,"Plant response rating, Barley",[3]; [15],0
same,"Plant response rating, Barley",[3]; [16],0
same,"Plant response rating, Barley",[3]; [18],10
same,Barley plant response rating,[3],20
same,"Plant response rating, Chickweed",[4]; [15],40
same,"Plant response rating, Chickweed",[4]; [16],45
same,"Plant response rating, Chickweed",[4]; [17],50
same,Chickweed plant response rating,[4],80
same,"Plant response rating, Goosegrass",[5],98
same,"Plant response rating, Lambsquarters",[6]; [19],100
same,"Plant response rating, Lambsquarters",[6]; [20],90
same,"Plant response rating, Lambsquarters",[6]; [21],95
same,"Plant response rating, Lambsquarters",[6]; [22],95
same,Lambsquarters plant response rating,[6]; [23],98
same,"Plant response rating, Lambsquarters",[6]; [24],100
same,"Plant response rating, Lambsquarters",[6]; [25],100
same,Lambsquarters plant response rating,[6]; [26],100
same,"Plant response rating, Galium","[7]; 250 g ai/ha, 0 to 100 scale",95
same,"Plant response rating, Galium",[7]; [15],0
same,"Plant response rating, Galium",[7]; [27],50
same,Galium plant response rating,[7]; 0 to 100 scale,85
same,"Plant response rating, Ryegrass, Italian",[8]; [19],0
same,"Plant response rating, Ryegrass, Italian",[8]; [20],0
same,"Plant response rating, Ryegrass, Italian",[8]; [21],5
same,"Plant response rating, Ryegrass, Italian",[8]; [22],5
same,"Ryegrass, Italian plant response rating",[8]; [23],10
same,"Plant response rating, Ryegrass, Italian",[8]; [24],0
same,"Plant response rating, Ryegrass, Italian",[8]; [25],0
same,"Ryegrass, Italian plant response rating",[8]; [26],0
same,"Plant response rating, Bermudagrass",[9]; [19],100
same,"Plant response rating, Bermudagrass",[9]; [20],70
same,"Plant response rating, Bermudagrass",[9]; [21],90
same,"Plant response rating, Bermudagrass",[9]; [28],100
same,Bermudagrass plant response rating,[9]; [23],100
same,"Plant response rating, Bermudagrass",[9]; [24],70
same,"Plant response rating, Bermudagrass",[9]; [25],98
same,Bermudagrass plant response rating,[9]; [26],100
same,"Plant response rating, Nightshade","[10]; 250 g ai/ha, 0 to 100 scale",100
same,"Plant response rating, Nightshade",[10]; [15],80
same,"Plant response rating, Nightshade",[10]; [27],98
same,Nightshade plant response rating,[10]; 0 to 100 scale,100
same,"Plant response rating, Ragweed",[11]; [19],100
same,"Plant response rating, Ragweed",[11]; [20],85
same,"Plant response rating, Ragweed",[11]; [21],98
same,"Plant response rating, Ragweed",[11]; [22],100
same,Ragweed plant response rating,[11]; [23],100
same,"Plant response rating, Ragweed",[11]; [24],85
same,"Plant response rating, Ragweed",[11]; [25],85
same,Ragweed plant response rating,[11]; [26],100
same,"Plant response rating, Wheat",[12]; [19],5
same,"Plant response rating, Wheat",[12]; [20],0
same,"Plant response rating, Wheat",[12]; [21],5
same,"Plant response rating, Wheat",[12]; [22],10
same,Wheat plant response rating,[12]; [23],30
same,"Plant response rating, Wheat",[12]; [24],0
same,"Plant response rating, Wheat",[12]; [25],0
same,Wheat plant response rating,[12]; [26],0
same,"Plant response rating, Sunflower","[13]; 250 g ai/ha, 0 to 100 scale",100
same,"Plant response rating, Sunflower",[13]; [15],75
same,"Plant response rating, Sunflower",[13]; [27],75
same,Sunflower plant response rating,[13]; 0 to 100 scale,90
same,"Plant response rating, Pigweed",[14]; [19],100
same,"Plant response rating, Pigweed",[14]; [20],98
same,"Plant response rating, Pigweed",[14]; [21],98
same,"Plant response rating, Pigweed",[14]; [22],100
same,Pigweed plant response rating,[14]; [23],100
same,"Plant response rating, Pigweed",[14]; [24],100
same,"Plant response rating, Pigweed",[14]; [25],100
same,Pigweed plant response rating,[14]; [26],100
